Experiments:
[1] = target: T1, CKIP-1 (casein kinase 2 interacting protein-1) (Homo sapiens, UniProt Q53GL0); assay: SPR (Biacore T200, GST-CKIP-1-C1 captured on CM5 via anti-GST); supported by CETSA in HEK293T cells with Flag-CKIP-1; format: binding
T1 construct: gene PLEKHO1; GST-CKIP-1-C1 (C-terminal leucine zipper region, 345–409)
T1 sequence (Q53GL0 345-409): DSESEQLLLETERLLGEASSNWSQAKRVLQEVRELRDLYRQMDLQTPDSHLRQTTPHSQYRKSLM

[2] = target: T1, CKIP-1 (casein kinase 2 interacting protein-1); assay: SPR (Biacore T200, GST-CKIP-1-C1 captured on CM5 via anti-GST); format: binding

SMILES	Kd [1]	Kd [2]
CNC(=O)c1c(F)ccc(NS(=O)(=O)c2ccc(OC)nc2)c1-c1cc(C(F)(F)F)cc(C(F)(F)F)c1 [C77]	27.1 nM	–
CNC(=O)C1(NC(=O)/C=C/c2cc(I)cc(OC)c2O)CC1 [C170]	–	2170 nM
